Assay results reported in patent publication US6652860B1, “Peptide, apoEp 1.B, compositions and uses thereof” (University of Western Ontario, priority 1997, dated 2003).
Where no end group is shown, it is not given here.

Assays:
PU5-1.8 cells [1] = experiment: DC marker changes (B7-1 FACS) of PU5-1.8 cells incubated with modified apoEp1.B peptides; assay type: cell-based, murine; conditions: 20 hours
Description: Murine monocytic PU5-1.8 and J77A1.4 transformed cell lines, human monoblastic leukemia THP-1 and U-937, and murine B cell lymphoma A20 cells were cultured in RPMI 1640 medium (Gibco Laboratories, Grand Island, N.Y.) containing […] 2ME, 10 mM HEPES, 2 mM glutamine, 5.0 IU/ml penicillin streptomycin (Gibco) and 10%. heat inactivated Fetal Bovine Serum (FBS) (Hyclone Laboratories Inc., Logan, Utah)(cRPMI).
1×10^6 cells were washed with ice cold PBS and resuspended in 25 μl PBS and incubated with 10 μl normal mouse serum and fluorochrome conjugated anti-mouse D11a, CD11b, CD14, MHC class II, CD95, CD62L, CD62E, B7-1, B7-2 and ICAM-1 Pharmingen, Mississauga, Canada) monoclonal antibodies (mAb's) for 45 minutes on ice. endritic cell markers DEC-205, 33D1, CD11c (N418) unconjugated antibodies were imilarly treated, however, following primary antibody incubation,cells were washed 3 times and a secondary goat anti-rat (for 33D1 and DEC-205 ab's) and goat anti-hamster (for CD11c ab) fluorochrome-conjugated antibody was then added for 45 min on ice. Cells were then washed three times. All samples were resuspended in 300 μl PBS and the fluorescence of stained cells was analyzed on a FACScan flow cytometer (Becton Dickinson, Mountain View, Calif.) and data collected was analyzed using Lysis II (Becton-Dickinson) software. […]

PU5-1.8 cells [2] = experiment: DC-like surface marker expression on PU5-1.8 cells (FACS); assay type: cell-based, murine; conditions: 100 μg/ml, 24 hr, 10^5 PU5-1.8 cells
Description: (§1) 1×10^6 cells were washed with ice cold PBS and resuspended in 25 μl PBS and incubated with 10 μl normal mouse serum and fluorochrome conjugated anti-mouse D11a, CD11b, CD14, MHC class II, CD95, CD62L, CD62E, B7-1, B7-2 and ICAM-1 Pharmingen, Mississauga, Canada) monoclonal antibodies (mAb's) for 45 minutes on ice. endritic cell markers DEC-205, 33D1, CD11c (N418) unconjugated antibodies were imilarly treated, however, following primary antibody incubation,cells were washed 3 times and a secondary goat anti-rat (for 33D1 and DEC-205 ab's) and goat anti-hamster (for CD11c ab) fluorochrome-conjugated antibody was then added for 45 min on ice. Cells were then washed three times. All samples were resuspended in 300 μl PBS and the fluorescence of stained cells was analyzed on a FACScan flow cytometer (Becton Dickinson, Mountain View, Calif.) and data collected was analyzed using Lysis II (Becton-Dickinson) software.
(§2) Morphologically apoEp1.B-treated cells appeared DC-like. This was confirmed this by FACS analysis. Unprimed BALB/c splenocytes and PU5-1.8 cells were incubated for 24 hr with 100 μg/ml apoEp1.B or control peptide apoEp1.D and then stained for FACS analysis.
To assess whether apoEp1.B-induced phenotypic changes are dose-dependent, 10^5 PU5-1.8 cells were incubated for 20 hr with 0 (medium), 1, 10 or 100 μg/ml apoEp1.B in 24-well plates and were then stained for FACS analysis. […]

splenocytes = experiment: Surface marker expression on unprimed splenocytes (FACS); assay type: cell-based, mice; conditions: splenocytes (data not shown)
Description: as §1, §2
There were no changes in the expression of CD16/32 at any time.
Unprimed B6 and NOD splenocytes were incubated with 100 μg/ml apoEp1.B or apoEp1.D to determine whether apoEp1.B was strain-specific. […]

immune cells = experiment: Activation and differentiation of immune cells; assay type: cell-based
[3] = test system: BALB/c naive T cells co-cultured with NOD splenocytes; experiment: Mixed leukocyte reaction, T cell allostimulatory activity of treated APC's; assay type: cell-based, mice; conditions: particularly at 4×10^3 APC's per well
Description: Primary allogeneic MLR was set up with NOD splenocytes as stimulators and nylon wool enriched BALB/c naive T cells as responders. Stimulator cells were pre-incubated for 3 days with different combinations of apoEp1.B, GM-CSF, and PU5-1.8 supernatant containing TNF. Stimulator cells were then treated with mitomycin C (50 μg/ml, 20 min at 37° C.; Sigma) and co-cultured with 4×10^4 responder for 3 days at which time cells were pulsed with 50 μl [^3H]-TdR (0.5 μCi/well) for 24 hr. Cells were harvested (Tomtec) and [^3H]-TdR incorporation was measured on a Microbeta Liquid Scintillation Counter (Wallac). Each bar represents the mean cpm from triplicate cultures.
To measure the T cell allostimulatory or inhibitory ability of these DC's, 4×10^4 enriched BALB/c naive T cells were co-cultured with 40, 400, 4000 and 40,000 mitomycin C-treated NOD splenocytes which had been incubated with various stimualants for 3 d. T cell proliferation was measured following 3 days of co-culture by [^3H]-TdR incorporation. Bars represent the mean of triplicate wells (cpm+/−S.D.). * and ** represent p<0.05 and p<0.001, respectively in 2-way ANOVA's compared to medium alone (nil) controls. […] Upon combining responder T cells with APC, various exogenous factors were added, including 20 μg/ml Con A and 5 μg/ml apoEp1.B. Very little proliferation was detected in wells containing T cells alone or APC alone.

[4] = test system: iliofemoral artery of the rat; experiment: Balloon angioplasty injury model, plaque development in iliofemoral artery; assay type: in vivo; conditions: treated rats
Description: To investigate the role of apoEp1.B peptide in inflammation, particularly in response to arterial injury, a balloon angioplasty injury model which has been well characterized by Dr. Alex Lucas (Lucas et al. 1996 Circ. 94:2898-900) was used. 300 μg/ml of apoEp1 or apoEp1.B peptide were infused intra-arterially immediately prior to angioplasty at the site of injury in the iliofemoral artery of the rat. Positive control SERP-1 and negative control saline alone were also used. The rats were monitored carefully and euthanized 6 weeks after treatment and iliofemoral arteries were assessed for plaque development by histochemistry.

[5] = test system: Unprimed splenocytes, enriched spleen monocytes and monocytic PU5-1.8 and J77A4.1 cell lines; experiment: Dendritic-like cell morphology in vitro; assay type: cell-based, BALB/c mice; conditions: after 2 hr, optimally at 100 μg/ml
Description: Unprimed splenocytes, enriched spleen monocytes and monocytic PU5-1.8 and J77A4.1 cell lines from BALB/c mice were incubated with 0, 1, 10, or 100 μg/ml apoEp1.B (239-252) or negative control apoEp1.D (236-249) peptide to assess activity. […] After 24 hr, morphologically these cells appeared less rounded, more granular.

AQQIRLQAEAFQAR (listed as Homo sapiens) [human apoEp1.B]
effect on surface marker changes compared to apoEp1.B (PU5-1.8 cells [1]; 100 μg/ml, PU5-1.8 cells): slightly reduced effect
cell clustering and marker increase compared to murine apoEp1.B (PU5-1.8 cells [2]): to a lesser degree

EEQ TQQ IRL QAE IFQ AR (EEQTQQIRLQAEIFQAR; Murine) [apoEp1]
DC Marker Changes (PU5-1.8 cells [1]; Table 1 elongations and truncations, 100 μg/ml peptide, 10^5 PU5-1.8 cells, B7-1 stain, FACS): slight
CD40 expression (splenocytes): increase in CD40
L-selectin expression (splenocytes): decrease in L-selectin
induces activation and differentiation of immune cells (immune cells): does not induce DC's

GM-CSF: cytokine used to pre-incubate stimulator cells in MLR
allostimulation after APC pre-incubation [3]: dramatic increase in allostimulation

TQQIRLQAEIFQAR [apoEp1.B, TQQIRLQAEIFQAR]
adverse effects [4]: No adverse effects were observed

apoE: Human plasma VLDL purified apoE (Calbiochem) was used as native apoE
induces activation and differentiation of immune cells (immune cells): not

apoEp1.D: negative control apoEp1.D (236-249) peptide (VAEVRAKLEEQAQQ; UniProt P02649 254-267, looked up, fragment)
detachment from plastic plates and aggregation in suspension [5]: not
